In patent publication US7094909B2, “HIV protease inhibitors, compositions containing the same, their pharmaceutical uses and materials for their synthesis” (priority 2001, dated 2006):

How the values were obtained:
[1] = system: 461, 84V, 90M virus; assay: Phenotypic susceptibility assay at Virologic, Inc.; type: cell-based, HIV-1; conditions: Human immunodeficiency virus 1, read-out: EC50 or IC50 (mM), values with asterisk (IC50)
Method: Compounds were tested in phenotypic susceptibility assays at Virologic, Inc., (See Petropoulos C. J., Parkin N. T., Limoli K. L., Lie Y. S., Wrin T., Huang W., Tian H., Smith D., Winslow G. A., Capon D J, Whitcomb J M. 2000, “A novel phenotypic drug susceptibility assay for human immunodeficiency virus type 1,” Antimicrob Agents Chemother 44(4):920–928) or using the assay described here. MT-2 cells were infected with either HIV-1 NL4-3 or HIV-1 NL4-3([…]) and incubated in the presence of serial 0.5 log dilutions of test compounds. Three days later, culture supernatants were collected and virus production, as determined by p24 ELISA, was assayed. Percent inhibition was calculated as p24 concentration in compound-treated samples as compared to infected, compound-free controls. Inhibition of viral replication is determined by measuring reduction in HIV p24 present in the culture supernatant, using a Beckman-Coulter p24HIV-1 Ag EIA kit and following the supplied protocol. Absorbance is read on a MRX microplate reader (Dynex Technologies). The EC50 was calculated as the concentration of compound that effected a decrease in the p24 production by infected, compound-treated cells to 50% of that produced by infected, compound-free cells.

[2] = system: HIV-1 (HIV-1 RF, HIV-1 NL4-3) in CEM-SS / MT-2 cells; assay: Cytopathic effect (CPE) inhibition assay (XTT/MTT dye reduction); type: cell-based; conditions: Human immunodeficiency virus 1, NL43; read-out: Ave CPE EC50
Method in brief: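 CEM-SS or MT-2 cells were infected with HIV-1 RF or NL4-3 (moi 0.025–0.819) and plated at 2×10^4 cells/well with half-log compound dilutions for 6 days. Viability was read by XTT formazan at 450 nm after 4 h. EC50 restores formazan to 50% of uninfected untreated cells, CC50 halves it in uninfected cells, and TI = CC50/EC50.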

[3] = molecular target: T1, HIV-1 protease (Q7S mutant form) (Human immunodeficiency virus type 1 group M subtype B, UniProt P04585, Q495S); assay: HIV-1 Protease RET assay; type: biochemical; conditions: Ave. Ki (nM), RET assay, Q7S enzyme, Morrison tight binding fit
T1 construct: made in house
Method in brief: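 Q7S HIV-1 protease, refolded from urea, 2 nM active dimer with 5 μM EDANS/DABCYL peptide cleaved at Tyr-Pro; fluorescence 340/490 nm. 12 min at 37 °C in 0.1M sodium acetate pH 4.8, 1M NaCl, 10% DMSO. Ki from Morrison tight-binding fit.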

For `Cc1c(O)cccc1C(=O)N[C@@H](Cc1ccccc1)[C@H](O)C(=O)N1CSC(C)(C)[C@H]1C(=O)N[C@H]1CCc2ccccc21` [Example A35, (R)-3-((2S,3S)-2-Hydroxy-3-{[1-(3-hydroxy-2-methyl-phenyl)-methanoyl]-amino}-4-phenyl-butanoyl)-5,5-dimethyl-thiazolidine-4-carboxylic acid (S)-indan-1-ylamide], the IC50 [1] was 41 nM, the EC50 [2] was 16 nM and the Ki [3] was less than 0.1 nM. It also gave a melting point of 204 to 206 °C.
Compound `Cc1c(O)cccc1C(=O)N[C@@H](Cc1ccccc1)[C@H](O)C(=O)N1CSC(C)(C)[C@H]1C(=O)NC1CCC(C)CC1` (stereo partly drawn) [Example A36, (R)-3-((2S,3S)-2-Hydroxy-3-{[1-(3-hydroxy-2-methyl-phenyl)-methanoyl]-amino}-4-phenyl-butanoyl)-5,5-dimethyl-thiazolidine-4-carboxylic acid (4-methyl-cyclohexyl)-amide] has an EC50 [2] of 343 nM, a Ki [3] of 0.78 nM and a melting point of 192 to 194 °C.
Compound `Cc1c(O)cccc1C(=O)N[C@@H](Cc1ccccc1)[C@H](O)C(=O)N1CSC(C)(C)[C@H]1C(=O)N[C@@H]1C=CCCC1` [Example A32, (R)-3-((2S,3S)-2-Hydroxy-3-{[1-(3-hydroxy-2-methyl-phenyl)-methanoyl]-amino}-4-phenyl-butanoyl)-5,5-dimethyl-thiazolidine-4-carboxylic acid (S)-cyclohex-2-enylamide] has an IC50 [1] of 55 nM, an EC50 [2] of 12 nM and a Ki [3] of less than 0.1 nM. The melting point was 177 to 179 °C.
Compound `CC1(C)SCN(C(=O)[C@@H](O)[C@H](Cc2ccccc2)NC(=O)O[C@H]2CCOC2)[C@@H]1C(=O)N[C@H]1CCCc2ccccc21` [Example B33, ((1S,2S)-1-Benzyl-3-{(R)-5,5-dimethyl-4-[(S)-(1,2,3,4-tetrahydro-naphthalen-1-yl)carbamoyl]-thiazolidin-3-yl}-2-hydroxy-3-oxo-propyl)-carbamic acid (S)-(tetrahydro-furan-3-yl) ester] has an IC50 [1] of 604 nM, an EC50 [2] of 45 nM and a Ki [3] of less than 0.1 nM. For the same compound, the melting point was 103 to 105 °C.
For `Cc1cccc(C)c1OCC(=O)N[C@@H](Cc1ccccc1)[C@H](O)C(=O)N1CSC(C)(C)[C@H]1C(=O)N[C@H]1CCOc2ccccc21` [Example B30, (R)-3-{(2S,3S)-3-[2-(2,6-Dimethyl-phenoxy)-ethanoylamino]-2-hydroxy-4-phenyl-butanoyl}-5,5-dimethyl-thiazolidine-4-carboxylic acid (S)-chroman-4-ylamide], the EC50 [2] was 443 nM, the Ki [3] was 0.21 nM and the melting point was 105 to 107 °C.
Compound `Cc1c(O)cccc1C(=O)N[C@@H](Cc1ccccc1)[C@H](O)C(=O)N1CSC(C)(C)[C@H]1C(=O)N[C@H]1CCSc2ccccc21` [Example A19, (R)-3-((2S,3S)-2-Hydroxy-3-{[1-(3-hydroxy-2-methyl-phenyl)-methanoyl]-amino}-4-phenyl-butanoyl)-5,5-dimethyl-thiazolidine-4-carboxylic acid (S)-thiochroman-4-ylamide] has an EC50 [2] of 15 nM, a Ki [3] of 0.21 nM and a melting point of 125 to 127 °C.
`Cc1c(O)cccc1C(=O)N[C@@H](Cc1ccccc1)[C@H](O)C(=O)N1CSC(C)(C)[C@H]1C(=O)N[C@@H]1CCOc2ccccc21` [Example A16, (R)-3-((2S,3S)-2-Hydroxy-3-{[1-(3-hydroxy-2-methyl-phenyl)-methanoyl]-amino}-4-phenyl-butanoyl)-5,5-dimethyl-thiazolidine-4-carboxylic acid (R)-chroman4-ylamide] showed an EC50 [2] of 254 nM, a Ki [3] of 0.43 nM and a melting point of 135 to 136 °C.
`Cc1c(O)cccc1C(=O)N[C@@H](Cc1ccccc1)[C@H](O)C(=O)N1CSC(C)(C)[C@H]1C(=O)N[C@H]1CCCc2ccccc21` [Example A1, 3-[2-Hydroxy-3-(3-hydroxy-2-methyl-benzoylamino)-4-phenyl-butyryl]-5,5-dimethyl-thiazolidine-4-carboxylic acid (1,2,3,4-tetrahydro-naphthalen-1-yl)-amide] showed an EC50 [2] of 29 nM, a Ki [3] of 0.21 nM and a melting point of 125 to 126 °C.
`Cc1c(O)cccc1C(=O)N[C@@H](Cc1ccccc1)[C@H](O)C(=O)N1CSC(C)(C)[C@H]1C(=O)N[C@H]1CCOc2ccccc21` [Example A17, (R)-3-((2S,3S)-2-Hydroxy-3-{[1-(3-hydroxy-2-methyl-phenyl)-methanoyl]-amino}-4-phenyl-butanoyl)-5,5-dimethyl-thiazolidine-4-carboxylic acid (S)-chroman-4-ylamide] showed an IC50 [1] of 49 nM, an EC50 [2] of 24 nM and a Ki [3] of less than 0.1 nM. It also gave a melting point of 135 to 136 °C.
